Measurements taken from patent US20050267126A1, “Compounds derived from aryl carbamates, preparation thereof and uses of same” (priority 2002, published 2005).

The compounds below were run against T1, human isoform h5-HT4e (Homo sapiens, UniProt Q13639) (assay: displacement of radiolabelled ligand [3H]-GR113808, affinity constant Ki). Details: [3H]-GR113808 0.2 nM; membranes of rat glial cells stably expressing h5-HT4e; 25° C., 30 min.
T1 construct: expressed in transfected cells; host or cells: rat glial cells, stably expressing; membranes prepared from homogenized cells
Assay type: binding
Method: The compounds of the invention were evaluated by measuring their affinity constant Ki determined by displacement of a radiolabelled ligand [^3H]—GR113808 in rat glial cells stably expressing the human isoform h5-HT4e.
Confluent glial cells were washed twice with PBS and centrifuged at 300 g for 5 min. The pellet was used immediately and the cells were suspended in 10 volumes of HEPES (50 mM, pH 7.4, 4° C.) then homogenized in a teflon homogenizer and centrifuged at 40,000 g for 20 min. The pellet was again suspended in 15 volumes of HEPES. Binding displacement experiments were carried out in […] of 50 mM HEPES buffer containing 20 μl of the radiolabelled ligand [^3H]—GR113808 at a concentration of 0.2 nM for the isoform h5-HT4e or at a concentration equal to one-half the Kd of the radioligand for the other isoforms expressed in COS cells, 20 μl of competitor ligand at 7 different concentrations and 50 μl of membrane preparation (100-200 μg of protein determined by the Bradford method). Binding was carried out at 25° C. for 30 min and the reaction was stopped by rapid vacuum filtration (Brandel Harvester) on Whatman GF/B filters preincubated in 0.1% PEI to reduce nonspecific binding.
Membrane-bound radioactivity was retained on the filter, which was cut and washed with cold buffer (50 mM Tris-HCl, pH 7.4) and incubated overnight in 4 ml of scintillation fluid. Radioactivity was measured in a liquid scintillation counter (Beckmann LS 6500C). Binding data were obtained by computer-assisted linear regression. (Graph Prism Program, Graph Pad Software. Inc., San Diego, Calif.)

T1 sequence (Q13639 1-378 isoform Q13639-5): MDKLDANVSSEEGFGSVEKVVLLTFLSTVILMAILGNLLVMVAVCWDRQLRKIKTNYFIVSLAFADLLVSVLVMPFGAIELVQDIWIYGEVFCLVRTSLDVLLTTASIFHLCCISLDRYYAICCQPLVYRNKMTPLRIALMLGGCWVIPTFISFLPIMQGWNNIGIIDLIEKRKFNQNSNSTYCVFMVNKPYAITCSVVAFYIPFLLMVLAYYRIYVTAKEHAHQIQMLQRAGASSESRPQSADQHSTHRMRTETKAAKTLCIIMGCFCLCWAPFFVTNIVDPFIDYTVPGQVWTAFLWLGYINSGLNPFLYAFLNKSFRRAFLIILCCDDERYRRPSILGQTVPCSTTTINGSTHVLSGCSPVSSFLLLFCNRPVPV

| Ki [nM] | Compound |
| --- | --- |
| 0.13 | CCOc1ccccc1NC(=O)OCCN1CCN(c2cccc(NC(=O)C3=CCCN(C)C3)c2)CC1 [Example 21, 2-(4-{3-[(1-methyl-1,2,5,6-tetrahydro-pyridine-3-carbonyl)-amino]-phenyl}-piperazin-1-yl)-ethyl-N-(2-ethoxy-phenyl)carbamate] |
| 0.17 | CCOc1ccccc1NC(=O)OCCN1CCN(c2cccc(NC(=O)CCN)c2)CC1 [Example 42, 2-{4-[3-(3-amino-propionylamino)-phenyl]-piperazin-1-yl}-ethyl-N-(2-ethoxy-phenyl)carbamate] |
| 0.18 | CCOc1ccccc1NC(=O)OCCN1CCN(c2cccc(NC(=O)C(N)Cc3ccc(O)cc3)c2)CC1 (centres unmarked) [Example 44, 2-(4-{3-[2-amino-3-(4-hydroxy-phenyl)-propionylamino]-phenyl}-piperazin-1-yl)-ethyl-N-(2-ethoxy-phenyl)carbamate] |
| 0.09 | CCOc1ccccc1NC(=O)OCCN1CCN(c2cccc(NC(=O)NCC3CCCN3CC)c2)CC1 (centres unmarked) [Example 57, 2-(4-{3-[3-(1-ethyl-pyrrolidin-2-ylmethyl)-ureido]-phenyl}-piperazin-1-yl)-ethyl-N-(2-ethoxy-phenyl)carbamate] |
| 0.24 | CCOc1ccccc1NC(=O)OCCN1CCN(c2cccc(NC(=O)N3CCC(N4CCCC4)CC3)c2)CC1 [Example 59, 2-(4-{3-[(4-pyrrolidin-1-yl-piperidine-1-carbonyl)-amino]-phenyl}-piperazin-1-yl)-ethyl-N-(2-ethoxy-phenyl)carbamate] |
| 0.2 | CCOc1ccccc1NC(=O)OCCN1CCN(c2cccc(NC(=O)NCCCN3CCN(C)CC3)c2)CC1 [Example 60, 2-[4-(3-{3-[3-(4-methyl-piperazin-1-yl)-propyl]-ureido}-phenyl)-piperazin-1-yl]-ethyl-N-(2-ethoxy-phenyl)carbamate] |
| 0.16 | CCOc1ccccc1NC(=O)OCCN1CCN(c2cccc(C(=O)NCCN3CCCCC3)c2)CC1 [Example 78, 2-(4-{3-[2-piperidin-1-yl-ethylcarbamoyl]-phenyl}-piperazin-1-yl)-ethyl-N-(2-ethoxy-phenyl)carbamate] |
| 0.75 | CCOc1ccccc1NC(=O)OCCN1CCN(c2cccc(C(=O)N(C)CCN(C)C)c2)CC1 [Example 105, 2-(4-{3-[(2-dimethylamino-ethyl)-methyl-carbamoyl]-phenyl}-piperazin-1-yl)-ethyl N-(2-ethoxy-phenyl)-carbamate] |
